Among the test systems are 786-0 renal; CAKI-1 renal; HCT-15 colon; HOP-92 NSCLC; HS 578T breast; MDA-N; NCI-H226 lung; NCI-H522 lung; OVCAR-4 ovarian; OVCAR-8 ovarian; PC-3 prostate; RXF 393 renal; SF-268 CNS; SN12C renal; SNB-75 CNS; SR leukemia; SW-620 colon; UACC-257 melanoma; UO-31 renal.
Assay in all cases: NCI anticancer screen, dose series, 48 h

Structures are written as SMILES.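 Compound exposure: 48 hours, 5 concentrations, 96-well plates. TGI: concentration producing complete growth inhibition.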

For `Cc1cc(-c2nc3cc(F)ccc3s2)ccc1NC(=O)C(C)N` (configuration not stated), the TGI in the experiment on 786-0 renal turned out to be 7.2 µM; in the experiment with CAKI-1 renal, 8.64 µM; in the experiment with HCT-15 colon, 6.67 µM; with HOP-92 NSCLC, 9.41 µM; with HS 578T breast, 10 µM; with MDA-N it was 8.13 µM. In addition, the TGI in the experiment with NCI-H226 lung is > 25 µM; with NCI-H522 lung, 7.99 µM; with OVCAR-4 ovarian, 8.18 µM; in the experiment with OVCAR-8 ovarian it was 8.62 µM; in the experiment on PC-3 prostate it was 8.71 µM; with RXF 393 renal it was 8.33 µM. Further, the TGI with SF-268 CNS worked out at 9.5 µM; with SN12C renal it was 9.49 µM; in the experiment with SNB-75 CNS it was 10.6 µM; with SR leukemia, 5.24 µM; with SW-620 colon, 9.77 µM; in the experiment with UACC-257 melanoma, 8.88 µM. In addition, the TGI in the experiment on UO-31 renal was found to be 7.05 µM.

For `O=C1N[C@@H]2c3c(Br)sc(Br)c3C(=O)[C@@H]2N1`, the TGI in the experiment on 786-0 renal was found to be 6.4 µM; in the experiment on CAKI-1 renal, 8.56 µM; in the experiment with HCT-15 colon it was 11.1 µM; in the experiment on HOP-92 NSCLC it was 12.5 µM; with HS 578T breast, 37 µM; in the experiment on MDA-N it was 5.04 µM. Also, the TGI was 91.2 µM with NCI-H226 lung; 11.2 µM in the experiment on NCI-H522 lung; 16.8 µM in the experiment on OVCAR-4 ovarian; 10.5 µM in the experiment on OVCAR-8 ovarian; 10.4 µM with PC-3 prostate; 14.3 µM in the experiment with RXF 393 renal. Also, the TGI with SF-268 CNS amounted to 13.8 µM; in the experiment on SN12C renal, 14.5 µM; in the experiment on SNB-75 CNS it was 18.4 µM; in the experiment on SR leukemia, 4.72 µM; with SW-620 colon it was 4.33 µM; in the experiment on UACC-257 melanoma, 8.19 µM. The molecule further had a TGI with UO-31 renal of 9.93 µM.

With `NC(N)=NS(=O)(=O)c1ccc(NNc2c3ccccc3nc3c(C(=O)Nc4ccc(S(N)(=O)=O)cc4)cccc23)cc1`, the TGI is > 100 µM in the experiment on 786-0 renal; > 100 µM in the experiment on CAKI-1 renal; > 100 µM in the experiment with HCT-15 colon; 73.8 µM with HOP-92 NSCLC; 88 µM in the experiment with HS 578T breast; > 100 µM in the experiment on MDA-N. The TGI with NCI-H226 lung, in the experiment on NCI-H522 lung, in the experiment with OVCAR-4 ovarian, with OVCAR-8 ovarian, in the experiment with PC-3 prostate and in the experiment with RXF 393 renal was > 100 µM in each case. In addition, the TGI in the experiment with SF-268 CNS, in the experiment on SN12C renal, in the experiment on SNB-75 CNS, in the experiment on SR leukemia, in the experiment on SW-620 colon and in the experiment on UACC-257 melanoma was > 100 µM in each case. Besides, the TGI in the experiment on UO-31 renal is > 100 µM.

As for `O=C(NC/C(Cl)=C/Cl)Nc1cccc2c1CCCC2`, the TGI in the experiment with 786-0 renal, in the experiment on CAKI-1 renal, in the experiment on HCT-15 colon, with HOP-92 NSCLC, with HS 578T breast and in the experiment on MDA-N was > 100 µM throughout. The TGI in the experiment on NCI-H226 lung, with NCI-H522 lung, with OVCAR-4 ovarian, with OVCAR-8 ovarian, in the experiment with PC-3 prostate and in the experiment with RXF 393 renal was > 100 µM throughout. Further, the TGI with SF-268 CNS, with SN12C renal, in the experiment with SNB-75 CNS, with SR leukemia, in the experiment on SW-620 colon and in the experiment on UACC-257 melanoma was > 100 µM each time. Moreover, the TGI in the experiment on UO-31 renal is > 100 µM.

On to `Cc1cc(C)c2c(c1)C(=O)C1(C2)Cc2c(ccc(C)c2C)C1=O` (configuration not stated), for which the TGI in the experiment with 786-0 renal, in the experiment on CAKI-1 renal, in the experiment on HCT-15 colon, in the experiment with HOP-92 NSCLC, with HS 578T breast and in the experiment on MDA-N was > 100 µM each time. The TGI with NCI-H226 lung, in the experiment on NCI-H522 lung, with OVCAR-4 ovarian, with OVCAR-8 ovarian, with PC-3 prostate and in the experiment with RXF 393 renal was > 100 µM in each case. Also, the TGI with SF-268 CNS, with SN12C renal, in the experiment on SNB-75 CNS, in the experiment with SR leukemia, in the experiment with SW-620 colon and in the experiment with UACC-257 melanoma was > 100 µM each time. Also, the TGI in the experiment with UO-31 renal is > 100 µM.

On to `O=c1cc(-c2ccccc2Cl)[nH]c2cc3c(cc12)OCO3`, for which the TGI with 786-0 renal was 29.8 µM; in the experiment on CAKI-1 renal, 39.9 µM; in the experiment with HCT-15 colon, 0.355 µM; in the experiment on HOP-92 NSCLC, 67.5 µM; in the experiment on HS 578T breast, 4.06 µM; in the experiment with MDA-N, 0.0383 µM. Besides, the TGI is 0.689 µM in the experiment with NCI-H226 lung; 0.489 µM in the experiment with NCI-H522 lung; > 9.75 µM in the experiment on OVCAR-4 ovarian; 9.88 µM in the experiment on OVCAR-8 ovarian; > 100 µM with PC-3 prostate; 16.4 µM in the experiment on RXF 393 renal. Moreover, the TGI was > 58.9 µM with SF-268 CNS; 29.1 µM in the experiment with SN12C renal; > 100 µM in the experiment on SNB-75 CNS; > 100 µM in the experiment with SR leukemia; > 100 µM with SW-620 colon; > 72 µM in the experiment on UACC-257 melanoma. Also, the TGI with UO-31 renal is > 20 µM.

With `CCOC(=O)CCc1c(C)[nH]c2c(C)c3c([nH]c4ccc(Cl)cc43)c(C)c2c1=O`, the TGI in the experiment on 786-0 renal was 20.5 µM; in the experiment on CAKI-1 renal it was 49.5 µM; in the experiment on HCT-15 colon, 54.5 µM; with HOP-92 NSCLC, 67.1 µM; in the experiment on HS 578T breast it was 77.5 µM; in the experiment on MDA-N, > 100 µM. Further, the TGI with NCI-H226 lung is 46.5 µM; with NCI-H522 lung it was 24.1 µM; in the experiment with OVCAR-4 ovarian it was 41.4 µM; in the experiment with OVCAR-8 ovarian it was 83.8 µM; with PC-3 prostate, > 100 µM; in the experiment with RXF 393 renal, 6.76 µM. Besides, the TGI is 76.7 µM in the experiment with SF-268 CNS; 30.9 µM in the experiment with SNB-75 CNS; > 100 µM in the experiment on SR leukemia; > 100 µM in the experiment on SW-620 colon; 30.5 µM in the experiment on UACC-257 melanoma; 40.6 µM with UO-31 renal.

Source of the values: PubChem BioAssay (NCI).
